According to patent US20100196430A1, “Controlled-released agricultural chemical formulation” (priority 2004, published 2010):
Like-named read-outs stand apart in the source and are kept apart here.

Tests used:
Type in all cases: in vivo
[1] = system: yellow striped flea beetles; test: Test of use as a seed treatment agent by combining with synthetic pyrethroids (rapeseed); details: Inoculation 18 days after seeding; for No. of plant damage scars/3 plants, Average / No. of plant damage scars/3 plants, Repeat A / No. of plant damage scars/3 plants, Repeat B: 3 days in cage, 500 g of each active per 100 kg of rapeseed seeds; for Control rate: relative to untreated group
Method: Wettable powder 2 obtained in Example 20 was dispersed in 2.8 ml of a solution (sticker solution), in which 5% by weight of polyvinyl alcohol (Gohsenol GL05S, Nippon Synthetic Chemical) and 1% by weight of a surfactant in the form of sodium lignin sulfonate ([…] RX-B, Takemoto Oil & Fat) were dissolved in 94% by weight of water, so as to contain […] of acetamiprid, 0.35 ml of this dispersion were placed in a vinyl bag provided with a zipper containing 8 g of rapeseed seeds, immediately after which the zipper was closed followed by mixing by shaking vigorously for 30 seconds to adhere the chemical to the rapeseed seeds. The seeds were then spread out in a thin layer in a vat and air-dried overnight at room temperature to obtain rapeseed seeds adhered with 500 g of acetamiprid per 100 kg of seeds.
1 g of cypermethrin wettable powder (active ingredient: […]) was dispersed in 1.3 ml of distilled water, and 0.65 ml of this dispersion (20 mg as cypermethrin) were placed in a vinyl bag provided with a zipper containing 8 g of rapeseed seeds adhered with 500 g of acetamiprid per 100 kg of seeds, immediately after which the zipper was closed followed by mixing by shaking vigorously for 30 seconds to adhere the chemical to the rapeseed seeds. The seeds were then spread out in a thin layer in a vat and air-dried for 1 to 2 hours at room temperature followed by again placing in a vinyl bag provided with a zipper, adding 0.65 ml of the aforementioned dispersion and repeating the same procedure. These seeds were then spread out in a thin layer in a vat followed by allowing to air dry overnight at room temperature to obtain rapeseed seeds adhered with 500 g of cypermethrin and 500 g of acetamiprid per 100 kg of seeds.
In addition, wettable powder 2 obtained in Example 20 was dispersed in 1.1 g of bifenthrin SC (active ingredient: 7.2% by weight) so as to contain 80 mg of acetamiprid, and 0.55 ml of this dispersion (40 mg as bifenthrin and 40 mg of acetamiprid) were placed in a vinyl bag provided with a zipper containing 8 g of rapeseed seeds, followed immediately by mixing by shaking vigorously for 30 seconds to adhere the chemical to the seeds. The seeds were then spread out in a thin layer in a vat and air-dried overnight at room temperature to obtain rapeseed seeds adhered with 500 g of bifenthrin and 500 g of acetamiprid per 100 kg of seeds.
The resulting seeds were planted in a No. 2 flower pot containing alluvial soil and cultivated in a greenhouse. Eighteen days after seeding, rapeseed seedlings were transferred to a cage in which 100 adult yellow striped flea beetles had been released, and after allowing to stand for 3 days, the number of plant damage scars caused by the adult yellow striped flea beetles was counted for three plants in each test group. For the control, similar tests were carried out in the case of treating with 500 g of wettable powder 2, cypermethrin or bifenthrin alone per 100 kg of seeds, and in the case of non-treatment. Control rate (%)=((no. of scars of untreated group−no. of scars of treated group)/(no. of scars of untreated group))×100.

[2] = system: yellow striped flea beetles; test: Test of use as a cell tray drench treatment agent (Chinese cabbage); details: for No. of plant damage scars/4 plants: counted 6 days after release
Method: 3.57 g of wettable powder 2 obtained in Example 20 were dispersed in 1 liter of water to prepare a chemical liquid. 0.5 ml of chemical liquid per plant were dropped onto Chinese cabbage seedlings at the 4 to 4.5 leaf stage cultured in cell trays from above using a pipette. On the day following chemical treatment, the treated seedlings were planted in No. 6 flower pots containing Kuroboku soil and cultivated in a greenhouse. Each pot was covered with a cylindrical cage at 2, 14 and 28 days after planting, 10 adult yellow striped flea beetles were released inside the cages, and the numbers of plant damage scars caused by the adult yellow striped flea beetles were counted for four pots in each test group 6 days after releasing the insect pests. For the control, similar tests were carried out in the case of treating with commercially available bifenthrin SC and in the case of non-treatment.

Nephotettix cincticeps = test: Test of use as a paddy treatment agent by seedling box drench treatment; details: for mortality at 0.03 ppm / mortality at 0.08 ppm / mortality at 0.12 ppm: Nephotettix cincticeps, soil, read-out: Insect mortality rate
Method: Wettable powder 4 obtained in Example 22 was diluted with water to a predetermined concentration to prepare a chemical liquid. 10 ml per tray of the chemical liquid was dropped onto the surface of soil containing seedlings having a height of about 10 cm cultivated in small plastic trays filled with granular planting soil using a pipette. Following chemical treatment, the trays were covered with a cylindrical cage and 6 two-instar Nephotettix cincticeps were released inside followed by counting the number of […] at 3 and 7 days after releasing the insect pests. For the control, similar tests were carried out for the case of treating with imidacloprid, and in the case of non-treatment. The control imidacloprid was sprayed onto the plants after adjusting to 5% by weight in dimethylformamide containing 1.5% by weight of Tween 20 and diluting with water.
Corrected insecticidal rate (%)=((survival rate in untreated group−survival rate in treated group)/survival rate in untreated group)×100

Cc1c(COC(=O)[C@@H]2[C@H](/C=C(\Cl)C(F)(F)F)C2(C)C)cccc1-c1ccccc1 (racemic) [Bifenthrin, bifenthrin]
No. of plant damage scars/3 plants, Average [1]: 270
No. of plant damage scars/3 plants, Repeat A [1]: 306
No. of plant damage scars/3 plants, Repeat B [1]: 234
Control rate [1]: 3.2%
Control rate ([2]; After 2 days): 87.1%
Control rate ([2]; After 14 days): 70.6%
Control rate ([2]; After 28 days): 40.7%
No. of plant damage scars/4 plants ([2]; beetles released After 2 days from planting, 0.5 ml of chemical liquid per plant): 4
No. of plant damage scars/4 plants ([2]; beetles released After 14 days from planting): 103
No. of plant damage scars/4 plants ([2]; beetles released After 28 days from planting): 934

CC1(C)C(C=C(Cl)Cl)C1C(=O)OC(C#N)c1cccc(Oc2ccccc2)c1 (centres unmarked) [Cypermethrin, cypermethrin]
No. of plant damage scars/3 plants, Average [1]: 269
No. of plant damage scars/3 plants, Repeat A [1]: 296
No. of plant damage scars/3 plants, Repeat B [1]: 241
Control rate [1]: 3.6%

O=[N+]([O-])NC1=NCCN1Cc1ccc(Cl)nc1 [Imidacloprid, imidacloprid]
Corrected insecticidal rate (Nephotettix cincticeps; Concentration 0.03 ppm, After 3 days): 83%
Corrected insecticidal rate (Nephotettix cincticeps; Concentration 0.03 ppm, After 7 days): 100%
Corrected insecticidal rate (Nephotettix cincticeps; Concentration 0.08 ppm, After 3 days): 63%
Corrected insecticidal rate (Nephotettix cincticeps; Concentration 0.08 ppm, After 7 days): 83%
Corrected insecticidal rate (Nephotettix cincticeps; Concentration 0.12 ppm, After 3 days): 100%
Corrected insecticidal rate (Nephotettix cincticeps; Concentration 0.12 ppm, After 7 days): 100%
mortality at 0.03 ppm (Nephotettix cincticeps; 72 h, Concentration 0.03 ppm, After 3 days): 83%
mortality at 0.08 ppm (Nephotettix cincticeps; 72 h, Concentration 0.08 ppm, After 3 days): 63%
mortality at 0.12 ppm (Nephotettix cincticeps; 72 h, Concentration 0.12 ppm, After 3 days): 100%
mortality at 0.03 ppm (Nephotettix cincticeps; 168 h, Concentration 0.03 ppm, After 7 days): 100%
mortality at 0.08 ppm (Nephotettix cincticeps; 168 h, Concentration 0.08 ppm, After 7 days): 83%
mortality at 0.12 ppm (Nephotettix cincticeps; 168 h, Concentration 0.12 ppm, After 7 days): 100%
